Data set [1] concerns HIV-1 clone NL4.3 (subtype B). Briefly: HIV-1 NL4.3 (subtype B) infection of MT-4 cells, Cell Titer Blue readout. The class given is cell-based. Here is the method:
(§1) Human PMBCs were incubated with 100 U recombinant IL-2 (Sigma-Aldrich) and 5 µg/mL phytohemagglutinin-P (PHA-P) (Difco) for 5 days at 37°C. MT-4 cells (1×10^6) or treated PBMCs (1.2×10^8) were infected with HIV-1 clone NL-4.3 or ZM247Fv-1 (MOI of 0.001) by spinoculation (1200 g at room temperature for 2 h). Uninfected cells were used as negative control and were also subjected to the spinoculation process. After spinoculation, supernatants were discarded and cells were resuspended in 10 mL of R10. Cells from each condition were then added to wells (96-well plate) containing serial dilutions of each ISD. For MT-4 cells, each dilution was done in sextuplicates and, for PBMCs, in triplicates. Cells were also incubated with different concentrations of ZDV as positive control. After 5 days in culture, Cell Titer Blue was added to each well and cells were incubated for additional 24 h. The median effective concentration for each drug is defined as EC50. In parallel with the infectivity assay, the same cell types were treated with different concentrations of drugs to determine their cytotoxicity, following the protocol described above. Drug concentration that results in a 50% decrease in viable cells is defined as the CC50 for each compound. EC50 was calculated according to Spearman-Karber and therapeutic index was defined by the ratio between CC50 and EC50 [55].
(§2) All statistical analyses were performed using program GraphPism version 6.0. Titrations for TCID50 infectivity were calculated by the Spearman-Karber method. Dose response curves to ISDs with HIV-1 subtype B and C were done using non-linear regression and were fit to the Hill equation.

Data set [2] relates to HIV-1 clone ZM247Fv-1 (subtype C). Briefly: HIV-1 ZM247Fv-1 (subtype C) infection of MT-4 cells, Cell Titer Blue readout. The class given is cell-based. How it is done: as §1, §2
Data set [3] has as its system HIV-1 clone NL4.3 (subtype B). Briefly: HIV-1 NL4.3 (subtype B) infection of human PBMCs, Cell Titer Blue readout. The class given is cell-based. How it is done: as §1, §2
Data set [4] relates to HIV-1 clone ZM247Fv-1 (subtype C). Briefly: HIV-1 ZM247Fv-1 (subtype C) infection of human PBMCs, Cell Titer Blue readout. The format is cell-based. How it is done: as §1, §2
Data set [5] can be described thus: Cytotoxicity (CC50) in MT-4 cells. The class given is cell-based. The settings on record: human, Subtype B (X4). Here is the method:
(§3) Cytotoxicity of ISDs was evaluated in J-Lat (clones 9.2 and 10.6) and PHA-activated human PBMCs. Cells were added to wells in a 96-well plate in the presence of various concentrations of ISDs, PMA or prostratin in sextuplicates for 24 and 72 h. Cell viability was determined using the CellTiter-blue fluorescence Cell Viability Assay (Promega) following the manufacturer's instruction.
as §1

A short description of data set [6]: Cytotoxicity (CC50) in human PBMCs. The format is cell-based. The note with it: human PBMCs activated with IL-2 and PHA-P; Human PBMC, Subtype C (R5). How it is done: as §3, §1
Data set [7] concerns J-Lat (clones 9.2 and 10.6). Briefly: Cell viability of J-Lat clones 9.2 and 10.6 (CellTiter-blue). The format is cell-based. The note with it: J-Lat clones 9.2 and 10.6, 48 h. How it is done: Cytotoxicity of ISDs was evaluated in J-Lat (clones 9.2 and 10.6) and PHA-activated human PBMCs. […] Cell viability was determined using the CellTiter-blue fluorescence Cell Viability Assay (Promega) following the manufacturer's instruction.

Data set [8] relates to HIV-1 p24 in J-Lat clones. Briefly: HIV-1 p24 production in J-Lat clones (ELISA). The class given is cell-based. The settings on record: J-Lat clones, GFP and p24 taken together. Here is the method:
(§4) ACH-2 and J1.1 are clonal cell lines derived from CEM [52] and Jurkat cells, respectively, after infection with HIV-1. U1 cells were derived from the human promonocyte cell line U937 and chronically infected with HIV-1 [54]. Each cell line (1×10^6 cells) was incubated in the presence of 1 µM of diterpenes (ING-A, ING-B, ING-C, prostratin and PMA) or 10 ng/mL TNF-α for 48 h at 37°C. After incubation, cells were centrifuged and supernatants were collected for the quantitation of gag p24 antigen by ELISA, following the protocol described by the manufacturer (Perkin Elmer).
To assess whether the GFP expression levels induced by ISDs in J-Lats led to viral production, all five clones were stimulated with 1 µM of each compound for 48 h and production of HIV-1 p24 was measured in the culture supernatant by ELISA. Levels of p24 were proportional to GFP expression in clones 6.3 and 9.2, whereas levels in clone 8.4 were lower when compared to GFP (Figure 3A).

Data set [9] deals with J1.1 cells. Briefly: gag p24 production in J1.1 cells (ELISA). The class given is cell-based, HIV-1. The note with it: 1 µM, 48 h. Here is the method:
as §4

Data set [10] concerns human PBMCs. Briefly: Cytotoxicity in human PBMCs at 24 and 72 h. The class given is cell-based. Here is the method:
as §3

The subject of data set [11] is HIV-1 NL4.3-Luc. Briefly: Luciferase expression in CD4+ T cells pre-treated and infected with NL4.3-Luc. The class given is cell-based. The note with it: cells pre-treated 24 h, infected with NL4.3-Luc MOI 0.1. How it is done:
CD4+ T cells were isolated by negative selection from human PBMCs (2.5×10^8 cells) using magnetic beads (Miltenyi) and incubated with 5 µg/mL PHA-P and 100 U IL-2 for 5 days. Cells were then seeded in 6-well plates (10^6 cells per well) and treated with different concentrations of ING-B. After 24 h, cells were infected with HIV-1 NL-Luc (MOI of 0.1) by spinoculation. Infected cells were kept at 37°C for 24 h and then collected for luciferase activity evaluation as described above.

For data set [12], the system named is human PBMCs. Briefly: Cellular proliferation assay (CFSE) in human PBMCs. The format is cell-based. The note with it: CFSE-stained human PBMC, 1, 5 or 10 µM, 8 days. How it is done:
Human PBMCs were stained with CFSE following manufacturer's instructions (Sigma-Aldrich). After staining, cells were washed twice in PBS and incubated with ING-B (1, 5 or 10 µM), 5 µg/mL PHA-P plus 10 U/mL IL-2 (as positive control), or DMSO 1% (as negative control). Cell proliferation was assessed for 8 days after stimulation, and relative proliferation index was calculated for all conditions.

Data set [13] relates to MT-4 cells. Briefly: Cell cycle analysis (propidium iodide) in MT-4 cells. The format is cell-based. The note with it: 48 h. How it is done: Human PBMCs and MT-4 cells were incubated at 37°C with different concentrations of ING-B for 48 h. After incubation, cells were collected, washed twice with PBS, and stained with 200 µl of propidium iodide (50 µg/mL, diluted in Hanks buffer with 1 mg/mL RNAse and 0.2% Triton X-100) for 15 min on ice before cytometry analysis.

Details of data set [14]: method as in earlier work. The note with it: rats, oral dosing; ref personal communication from Aurigon Life Science – Tutzing, Germany; cited from earlier work.
Details of data set [15]: method as in earlier work. The settings on record: dogs, oral dosing; ref personal communication from Aurigon Life Science – Tutzing, Germany; cited from earlier work.
The mark [16] stands for this setting: Human immunodeficiency virus 1, MT4.
[17] abbreviates: Human immunodeficiency virus 1, PBMC.

The structures appear in SMILES notation. Like-named read-outs stand apart in the source and are kept apart here.

In the case of `CCCCCC(=O)O[C@H]1C(C)=C[C@]23C(=O)[C@@H](C=C(CO)[C@@H](O)[C@]12O)[C@H]1[C@@H](C[C@H]3C)C1(C)C` [ING-B, ingenol-3-hexanoate], the EC50 was found to be 22 nM in data set [1] (setting [16]), 25 nM in data set [2] (setting [16]), 56 nM in [3] (setting [17]) and 47 nM in data set [4] (setting [17]). For the same compound, the “TI (CC50/EC50)” value in data set [1] (MT-4 cells, Subtype B (X4)) is recorded as 1272; in data set [2] (MT-4 cells, Subtype C (R5)), 1120; in data set [3] (Human PBMC, Subtype B (X4)), 714.3; in data set [4] (Human PBMC, Subtype C (R5)) it was 851. Further, the figures for the CC50 at 5 days in data set [5] and in data set [6] were 28000 nM and 40000 nM, respectively. In addition, the “cell viability / toxicity” value in data set [7] is “lower toxicity when compared to its counterparts”. In addition, in [8], the “HIV-LTR activation, overall comparison” value was “equivalent levels to PMA and TNF-α”. Besides, the “p24 production (in words)” value in data set [9] is “as much p24 production as PMA and TNF-α, and twice as much as prostratin”. In addition, in data set [10], the cytotoxicity result is listed as “less cytotoxic after 72 h of treatment”. The “levels of HIV-driven luciferase” value in data set [11] was “dramatically reduced”. For the same compound, in data set [12], the cell proliferation result is given as “no evidence that ING-B caused cell proliferation”. Besides, the cell cycle phases result in data set [13] is given as “did not alter cell cycle phases”. For the same compound, the no-observed-adverse-effect level in [14] and in data set [15] was 4 mg/kg/day each time.
